Reference: US20220298511A1, “APPLICATION OF COMBINED INHIBITION OF LNCRNA SAMMSON AND BRAF KINASE IN DELAYING ADAPTIVE DRUG-RESISTANCE OF MELANOMA” (XI'AN JIAOTONG UNIVERSITY, priority 2021, published 2022)

Tests used:
[1] = system: SAMMSON RNA level in A375 melanoma cells carrying BRAF^V600E mutation; assay: qRT-PCR analysis of SAMMSON RNA level after kinase inhibitor treatment; settings: 2 μM inhibitor, 0, 6 and 24 hours, actin as internal control
Experimental: (§3) Melanoma cell lines 1205Lu and A375 carrying BRAF^V600E mutation and HEK293FT cells were cultured in a 37° C. constant temperature incubator (containing 5% CO2). The A375 and HEK293FT cells were cultured in Dulbecco's Modified Eagle's Medium (DMEM), and the 1205Lu cells were cultured in Roswell Park Memorial Institute 1640 medium (RPMI 1640 medium). Both of the media contain 10% fetal bovine serum, penicillin (100 units/ml), and streptomycin (100 μg/ml).
(§4) Total RNA was extracted from the melanoma cells using TriPure Isolation Reagent (Roche, Basel, Switzerland), and then reverse transcribed into cDNA using the kit PrimeScript RT Master Mix (Takara #DRR036A, Osaka, Japan). Quantitative real-time PCR reactions were performed using iQ SYBR Green Supermix (BioRad), and analyzed by CFX Connect real-time PCR detection system (BioRad).

[2] = system: SAMMSON RNA level in 1205Lu melanoma cells carrying BRAF^V600E mutation; assay: as above; settings: 1205Lu cells, 2 μM inhibitor, 0, 6 and 24 hours, actin as internal control
Experimental: as §3, §4

A375 cells = assay: Annexin-V/PI apoptosis assay with SAMMSON siRNA knockdown and vemurafenib; type: cell-based; settings: then 5 μM vemurafenib 48 hours
Experimental: (§1) The cells were collected, washed twice with PBS and stained for 20-30 minutes using Annexin-V-FLUOS kit (Roche) according to the manufacturer's protocol. The stained cells were analyzed by a flow cytometer (Beckman Coulter, Indianapolis Ind., USA). The data were analyzed using Flowjo software (Three Star, Inc., Ashland, Oreg., USA).
The non-targeting control siRNA sequence is:
We tested whether the up-regulation of SAMMSON induced by the inhibition of the ERK signaling pathway is involved in the adaptive drug-resistance of melanoma cells. Two pairs of specific siRNAs (SEQ ID NO: 4 and SEQ ID NO: 5) were used to knock down SAMMSON in two melanoma cell lines A375 and 1205Lu carrying BRAF mutations. […] Referring also to FIGS. 3C to 3F, in A375 cells, percentage of cell apoptosis increased from 19% to 43% (SAM #1) and 37% (SAM #2), and in 1205Lu cells, from 26% to 43% (SAM #1) and 46% (SAM #2).

1205Lu TR SAMMSON cells = assay: Annexin-V/PI apoptosis assay with doxycycline-induced SAMMSON overexpression; type: cell-based; settings: 5 μM vemurafenib 48 hours
Experimental: (§2) The wild-type HA-SOX10 cDNA or SAMMSON cDNA was cloned into a pENTR/D-TOPO vector (Thermo Fisher Scientific) to construct an entry vector. Then, the entry vector and a pLentipuro/TO/V5-DEST vector were recombined to form a lentiviral vector. Lentivirus packaging for the lentiviral vector was performed in HEK293FT cells to produce lentiviruses. The melanoma cells 1205Lu and A375 were infected with the lentiviruses for 72 hours, and then screened by using puromycin to produce A375-TR HA-SOX10 WT cells, 1205Lu-TR HA-SOX10 WT cells, A375-TR SAMMSON cells and 1205Lu-TR SAMMSON cells.
as §1

A375 TR SAMMSON cells = assay: as above; type: cell-based; settings: 5 μM vemurafenib 48 hours
Experimental: as §2, §1

[3] = with 100 ng/ml doxycycline 72 hours (SAMMSON overexpressed)

O=C(Nc1ccc2[nH]nc(-c3ccncc3)c2c1)[C@@H]1CCN(CC(=O)N2CCN(c3ccc(-c4ncccn4)cc3)CC2)C1 [SCH772984]
RNA level of SAMMSON [1]: rapidly up-regulate the RNA level of SAMMSON | RNA level of SAMMSON [2]: rapidly up-regulate the RNA level of SAMMSON

CCCS(=O)(=O)Nc1ccc(F)c(C(=O)c2c[nH]c3ncc(-c4ccc(Cl)cc4)cc23)c1F [vemurafenib, Vemurafenib]
percentage of cell apoptosis (A375 cells; control siRNA 48 hours): 19% | percentage of cell apoptosis (1205Lu TR SAMMSON cells; [3]): 33% | percentage of cell apoptosis (1205Lu TR SAMMSON cells; without doxycycline): 44% | percentage of cell apoptosis (A375 TR SAMMSON cells; [3]): 33% | percentage of cell apoptosis (A375 TR SAMMSON cells; without doxycycline): 51%

SAM #1: SAMMSON-specific siRNA, SEQ ID NO: 4, 5′-GUCGCUAGACAUUUGAGGA-3′ (listed as RNA, chemistry not given here)
percentage of cell apoptosis (A375 cells; SAMMSON siRNA 48 hours): 43%

SAM #2: SAMMSON-specific siRNA, SEQ ID NO: 5, 5′-CCAACUCUCAAAGUAACUU-3′ (listed as RNA, chemistry not given here)
percentage of cell apoptosis (A375 cells; SAMMSON siRNA 48 hours): 37%
